Measurements from patent US20240398817A1, “CARDIO- AND RENOSAFE ANTIDIABETIC THERAPY” (priority 2018, published 2024).

Tested on: patients with type 2 diabetes at high vascular risk
Experiment: Cardiovascular and Renal Outcomes Trial: linagliptin 5 mg once daily vs placebo on top of standard of care
Type: in vivo
Settings: for 3P-MACE: hazard ratio (95% CI) vs placebo: Cox regression
Method: The effect of linagliptin on cardiovascular risk in adult patients with type 2 diabetes mellitus and with increased CV risk evidenced by a history of established macrovascular or renal disease (e.g. as defined herein) was evaluated in a multi-center, multi-national, randomized, double-blind parallel group trial. The trial compared the risk of experiencing a major adverse cardiovascular event (MACE) between linagliptin and placebo when these were added to and used concomitantly with standard of care treatments for diabetes (HbA1c), cardiovascular risk factors and renal disease.
The primary endpoint in this trial was the time to first occurrence of three point (3P) MACE. A major adverse cardiac event was defined as a cardiovascular death or a nonfatal myocardial infarction (MI) or a nonfatal stroke. The statistical analysis plan tested for non-inferiority for the occurrence of (3P) MACE. […] The secondary endpoint was a renal composite, defined as renal death or sustained end stage renal disease or sustained decrease of 40% or more in eGFR.
Type 2 diabetes patient with insufficient glycemic control (naïve or pre-treated with any antidiabetic background medication, excluding treatment with GLP-1 receptor agonists, DPP-4inhibitors or SGLT-2 inhibitors if ≥consecutive 7 days, e.g. having HbA1c 6.5-10%), and high risk of cardiovascular events, e.g. defined by: • albuminuria (micro or macro) and previous macrovascular disease: e.g. defined according to Condition I as indicated below; • and/or • impaired renal function: e.g. as defined according to Condition II as indicated below;
Background and aims: People with type 2 diabetes (T2D) are at increased risk for hospitalization for heart failure (hHF), particularly in the setting of concomitant cardiovascular (CV) and/or kidney disease. […] Here we present analyses of HF outcomes with the DPP-4 inhibitor linagliptin (LINA) vs. placebo (PBO) from a Cardiovascular and Renal Outcomes Trial assessing cardiovascular safety and renal microvascular outcome in patients with type 2 diabetes at high vascular risk, a large CV outcomes trial that enrolled participants with T2D at high risk for hHF due to concomitant CV and/or chronic kidney disease. Materials and methods: People with T2D and concomitant CV and/or kidney disease were randomized to receive LINA 5 mg, or PBO once daily (1:1), on top of standard of care. All hHF, CV outcomes, and deaths were centrally adjudicated, with individual and composite HF-related outcomes analyses comparing LINA vs. placebo. Investigator-reported HF-related adverse events, whether or not confirmed by adjudication, were also analyzed. A Cox proportional hazards model adjusting for region and history of HF was used for analyses of first events. Recurrent hHF events were analyzed using a negative binomial model.
Methods: The present Cardiovascular and Renal Outcomes Trial randomized people with T2D and i) concomitant CV disease with UACR >30 mg/g or ii) prevalent CKD (i.e. GFR <45 ml/min/1.73m2 and/or UACR >200 mg/g) to receive the DPP-4 inhibitor linagliptin (5 mg) or placebo once daily in a double-blind fashion. The primary CV endpoint was 3P-MACE, with a key secondary kidney endpoint (adjudicated ESKD, renal death, or sustained ≥40% decrease in eGFR from baseline) and other renal outcomes (including albuminuria and eGFR slope) also assessed. Subgroups were assessed by baseline kidney function (eGFR ≥/<45 ml/min/1.73m2and eGFR ≥/<30, 45 or 60 ml/min/1.73m2).
Adults with type 2 diabetes, HbA1c 6.5-10.0% inclusive, and high CV risk were eligible for inclusion. […] Macrovascular disease eligibility criteria was based on documented and confirmed history of myocardial infarction, coronary artery disease, stroke, carotid artery disease, or peripheral artery disease. Participants with end-stage kidney disease (ESKD), defined as eGFR <15 or requiring maintenance dialysis, were excluded.

[1] = all patients, listed as Lingagliptin
[2] = all patients, listed as linagliptin
[3] = both, human, in vivo, 5 mg, 1.9 years
[4] = eGFR ≥30 to <45 mL/min/1.73 m^2

CC#CCn1c(N2CCC[C@@H](N)C2)nc2c1c(=O)n(Cc1nc(C)c3ccccc3n1)c(=O)n2C [Linagliptin, 1-[(4-methyl-quinazolin-2-yl)methyl]-3-methyl-7-(2-butyn-1-yl)-8-(3-(R)-amino-piperidin-1-yl)-xanthine]
3P-MACE: rate/100 patient-years (all patients): 4.69 per 100 patient-years
All-cause death: rate per 100 person-years (all patients): 4.69 per 100 person-years
All-cause mortality: incidence rate per 1000 PY (all patients): 46.9 per 1000 patient years
All-cause mortality: number of subjects (all patients): 367
Hospitalization for heart failure: incidence rate/1000 patient-years (all patients): 27.7 per 1000 patient years
Hospitalization for heart failure: number of patients (all patients): 209
Hospitalization for heart failure: rate/100 patient-years (all patients): 2.77 per 100 patient-years
Renal composite (40% eGFR): incidence rate per 1000 PY (all patients): 48.9 per 1000 patient years
Renal composite (40% eGFR): rate/100 patient-years (all patients): 4.89 per 100 patient-years
Renal composite (renal death, sustained ESRD, sustained decrease of 40% or more in eGFR): number of subjects (all patients): 327
Renal death or sustained ESKD: number of patients (all patients): 136
Renal death or sustained ESKD: patients, % (all patients): (3.9) %
Renal death or sustained ESKD: rate/1000 patient-years (all patients): 17.8 per 1000 patient years
Renal death, or sustained ESKD: rate/100 patient-years (all patients): 1.78 per 100 patient-years
Renal death, sustained ESKD, or sustained ≥ doubling of se-creatinine from baseline: n (all patients): 219
Renal death, sustained ESKD, or ≥ doubling of se-creatinine: % (all patients): (6.3) %
Renal death, sustained ESKD, or ≥ doubling of se-creatinine: rate/100 patient-years (all patients): 3.21 per 100 patient-years
3P-MACE: hazard ratio (95% CI) vs placebo (all patients): 1.02
3P-MACE: hazard ratio (95% CI) vs placebo [1]: 1.02 (0.89. 1.17)
3P-MACE (CV death, non-fatal MI, non-fatal stroke): number of subjects with event (all patients, n = 3494): 434
Hospitalization for heart failure: hazard ratio (95% CI) vs placebo (all patients, listed as LINA): 0.90
Renal composite (40% eGFR): hazard ratio (CI) vs placebo (all patients, listed as LINA): 1.04
3P-MACE: subjects with event, % [1]: 12.4%
Renal composite (40% eGFR): hazard ratio (CI) vs placebo [1]: 1.04 (0.89, 1.22)
Renal composite (40% eGFR): subjects, % [1]: 9.4%
3P-MACE: rate/100 patient-years [2]: 5.77 per 100 patient-years
3P-MACE: subjects with event, % [2]: 12.4%
All-cause mortality: hazard ratio (95% CI) vs placebo [2]: 0.98
All-cause mortality: subjects, % [2]: 10.5%
Hospitalization for heart failure: hazard ratio (95% CI) vs placebo [2]: 0.90
Hospitalization for heart failure: patients, % [2]: 6.0%
Renal composite (40% eGFR): hazard ratio (CI) vs placebo [2]: 1.04
Renal composite (40% eGFR): subjects, % [2]: 9.4%
Renal death or sustained ESKD: hazard ratio (95% CI) vs placebo [2]: 0.87
Renal death or sustained ESKD: patients, % [2]: 3.9%
Fatal cases of pancreatitis: % [3]: 0.1%
Fatal cases of pancreatitis: n [3]: 2
3-point MACE: hazard ratio vs placebo (eGFR <30 mL/min/1.73 m^2): 0.97
3-point MACE: patients with event/patients analyzed (eGFR <30 mL/min/1.73 m^2): 101/516
Key secondary kidney outcome: hazard ratio vs placebo (eGFR <30 mL/min/1.73 m^2): 1.05
Key secondary kidney outcome: patients with event/patients analyzed (eGFR <30 mL/min/1.73 m^2): 133/516
3P-MACE: % (eGFR < 45 (n = 3000)): (16.6) %
3P-MACE: HR (95% CI) vs placebo (eGFR < 45 (n = 3000)): 1.02 (0.85, 1.21)
3P-MACE: n (eGFR < 45 (n = 3000)): 250
3P-MACE: rate/100 patient-years (eGFR < 45 (n = 3000)): 7.61 per 100 patient-years
Hospitalized heart failure: % (eGFR < 45 (n = 3000)): (8.9) %
Hospitalized heart failure: HR (95% CI) vs placebo (eGFR < 45 (n = 3000)): 0.87 (0.69, 1.10)
Hospitalized heart failure: n (eGFR < 45 (n = 3000)): 135
Hospitalized heart failure: rate/100 patient-years (eGFR < 45 (n = 3000)): 4.13 per 100 patient-years
Key secondary kidney endpoint: % (eGFR < 45 (n = 3000)): (14.7) %
Key secondary kidney endpoint: HR (95% CI) vs placebo (eGFR < 45 (n = 3000)): 0.97 (0.80, 1.17)
Key secondary kidney endpoint: n (eGFR < 45 (n = 3000)): 222
Key secondary kidney endpoint: rate/100 patient-years (eGFR < 45 (n = 3000)): 7.83 per 100 patient-years
Renal death, or sustained ESKD: % (eGFR < 45 (n = 3000)): (8.2) %
Renal death, or sustained ESKD: HR (95% CI) vs placebo (eGFR < 45 (n = 3000)): 0.82 (0.64, 1.04)
Renal death, or sustained ESKD: n (eGFR < 45 (n = 3000)): 124
Renal death, or sustained ESKD: rate/100 patient-years (eGFR < 45 (n = 3000)): 3.78 per 100 patient-years
Renal death, sustained ESKD, or ≥ doubling of se-creatinine: % (eGFR < 45 (n = 3000)): (10.9) %
Renal death, sustained ESKD, or ≥ doubling of se-creatinine: HR (95% CI) vs placebo (eGFR < 45 (n = 3000)): 0.87 (0.70, 1.07)
Renal death, sustained ESKD, or ≥ doubling of se-creatinine: n (eGFR < 45 (n = 3000)): 165
Renal death, sustained ESKD, or ≥ doubling of se-creatinine: rate/100 patient-years (eGFR < 45 (n = 3000)): 5.69 per 100 patient-years
Risk of composite microvascular outcome 1 vs placebo, in words (eGFR decrease 50%): significantly reduced
Risk of composite microvascular outcome 2 and 3 vs placebo, in words (eGFR decrease of 40% and 30%): also significantly reduced
3-point MACE: hazard ratio vs placebo [4]: 1.07
3-point MACE: patients with event/patients analyzed [4]: 149/994
Key secondary kidney outcome: hazard ratio vs placebo [4]: 0.95
Key secondary kidney outcome: patients with event/patients analyzed [4]: 89/994
3P-MACE: % (eGFR ≥ 45 (n = 3979)): (9.3) %
3P-MACE: HR (95% CI) vs placebo (eGFR ≥ 45 (n = 3979)): 1.03 (0.84, 1.26)
3P-MACE: n (eGFR ≥ 45 (n = 3979)): 184
3P-MACE: rate/100 patient-years (eGFR ≥ 45 (n = 3979)): 4.34 per 100 patient-years
Hospitalized heart failure: % (eGFR ≥ 45 (n = 3979)): (3.7) %
Hospitalized heart failure: HR (95% CI) vs placebo (eGFR ≥ 45 (n = 3979)): 0.97 (0.70, 1.34)
Hospitalized heart failure: n (eGFR ≥ 45 (n = 3979)): 74
Hospitalized heart failure: rate/100 patient-years (eGFR ≥ 45 (n = 3979)): 1.73 per 100 patient-years
Key secondary kidney endpoint: % (eGFR ≥ 45 (n = 3979)): (5.3) %
Key secondary kidney endpoint: HR (95% CI) vs placebo (eGFR ≥ 45 (n = 3979)): 1.19 (0.89, 1.58)
Key secondary kidney endpoint: n (eGFR ≥ 45 (n = 3979)): 105
Key secondary kidney endpoint: rate/100 patient-years (eGFR ≥ 45 (n = 3979)): 2.72 per 100 patient-years
Renal death, or sustained ESKD: % (eGFR ≥ 45 (n = 3979)): (0.6) %
Renal death, or sustained ESKD: HR (95% CI) vs placebo (eGFR ≥ 45 (n = 3979)): 1.50 (0.61, 3.67)
Renal death, or sustained ESKD: n (eGFR ≥ 45 (n = 3979)): 12
Renal death, or sustained ESKD: rate/100 patient-years (eGFR ≥ 45 (n = 3979)): 0.28 per 100 patient-years
Renal death, sustained ESKD, or ≥ doubling of se-creatinine: % (eGFR ≥ 45 (n = 3979)): (2.7) %
Renal death, sustained ESKD, or ≥ doubling of se-creatinine: HR (95% CI) vs placebo (eGFR ≥ 45 (n = 3979)): 1.08 (0.73, 1.59)
